From patent US10617691B2, “Combination of an anti-CD19 antibody and a Bruton's tyrosine kinase inhibitor and uses thereof” (MORPHOSYS AG, priority 2015, dated 2020)

B1: MOR00208: anti-CD19 antibody; heavy chain SEQ ID NO: 14, light chain SEQ ID NO: 15 (antibody)
heavy: EVQLVESGGGLVKPGGSLKLSCAASGYTFTSYVMHWVRQAPGKGLEWIGYINPYNDGTKYNEKFQGRVTISSDKSISTAYMELSSLRSEDTAMYYCARGTYYYGTRVFDYWGQGTLVTVSSASTKGPSVFPLAPSSKSTSGGTAALGCLVKDYFPEPVTVSWNSGALTSGVHTFPAVLQSSGLYSLSSVVTVPSSSLGTQTYICNVNHKPSNTKVDKKVEPKSCDKTHTCPPCPAPELLGGPDVFLFPPKPKDTLMISRTPEVTCVVVDVSHEDPEVQFNWYVDGVEVHNAKTKPREEQFNSTFRVVSVLTVVHQDWLNGKEYKCKVSNKALPAPEEKTISKTKGQPREPQVYTLPPSREEMTKNQVSLTCLVKGFYPSDIAVEWESNGQPENNYKTTPPMLDSDGSFFLYSKLTVDKSRWQQGNVFSCSVMHEALHNHYTQKSLSLSPGK
light: DIVMTQSPATLSLSPGERATLSCRSSKSLQNVNGNTYLYWFQQKPGQSPQLLIYRMSNLNSGVPDRFSGSGSGTEFTLTISSLEPEDFAVYYCMQHLEYPITFGAGTKLEIKRTVAAPSVFIFPPSDEQLKSGTASVVCLLNNFYPREAKVQWKVDNALQSGNSQESVTEQDSKDSTYSLSSTLTLSKADYEKHKVYACEVTHQGLSSPVTKSFNRGEC

System: MEC-1 cells
Assay: ADCC target cell killing of MEC-1 cells by NK cells (FACS, DAPI positive dead target cells), MOR00208 and Ibrutinib alone and in combination
Type: cell-based
Procedure: Cell lines tested: MEC-1 cells (DSMZ # ACC497). Cell lines are tested: chronic B-cell leukemia cell line; JVM-2 (ATCC® CRL-3002) a mantle cell lymphoma cell line; Ramos cells (ATCC number CRL-1596), a human Burkitt's lymphoma cells; HG-3 (DSMZ # ACC765), and CII (DSMZ # ACC773) are a chronic lymphocytic leukemia cell line; Su-DHL 6 (DSMZ # ACC572), U2932 (DSMZ # ACC633) and OCI-LY7 (DSMZ # ACC688) are a Diffuse large B-cell lymphoma (DLBCL) cell line; JVM-2 (ATCC® CRL-3002) is a mantle cell lymphoma cell line; and BALL-1 (DSMZ # ACC742) is an acute lymphoblastic leukemia cell line.
The cytotoxicity of MOR00208 and Ibrutinib alone and in combination were tested in the MEC-1 cell line (CLL). The cytotoxicity of MOR00208 and Ibrutinib alone and in combination are tested in the following target cell lines: JVM-2, Ramos, HG-3, CII, Su-DHL 6, U2932, OCI-LY7, JVM-2 and BALL-1.
Ibrutinib is a covalent inhibitor of Bruton's tyrosine kinase and should abrogate proliferation in target cell lines. MOR00208 targets CD19 and mediates target cell killing via ADCC. Target cell killing is measured using the following parameters: Ibrutinib at a concentration range of between 0.033 and 33 μM, specifically at 0.3 μM, 1.0 μM and 3.0 μM; MOR00208 at a concentration range from 0.001-10 nM, specifically at 0.01 nM, 0.1 nM, and 10 nM, and the combination of MOR00208 and Ibrutinib. The following are used as controls: RefmAb33 or NK cells alone. In the Ibrutinib group as well as in the MOR00208+Ibrutinib combination group, target cells are pre-treated with Ibrutinib for 7 days prior to the ADCC assay measurements. The target cells are counted and stained using 1 μg/ml CFSE end concentration. For DMSO treated target cells, an effector: target (E:T) ratio of 2:1 is chosen, corresponding to a cell density of 5×10^5/ml. The proliferative effect on target cells caused by Ibrutinib treatment was included by adjusting the E:T ratio in inhibitor treated cells. The NK cells are counted and adjusted to 1×10^6/ml. The target cell killing assays were performed as follows: using 96 well plates, 100 μl of target cell suspension was added per well, followed by 100 μl cell suspension of NK cells to each well resulting in an E:T ratio of 2:1. The antibodies were diluted in a range of 10-0.001 nM in medium. Cells were centrifuged and target: effector cell-pellets were re-suspended in 100 μl antibody-containing medium or the according control solution. The assay was incubated for 4 h in CO2-incubator at 37° C. After 10 min incubation on ice, 50 μl DAPI solution was added to each well (final concentration 1 μg/ml) and incubated on ice for 10 min. The cell killing measurements were performed with FACS-Verse. Dead target cells were DAPI positive.
In total, three experiments were performed in order to determine the mediation of ADCC on MEC-1 cells by the combination of MOR00208 and Ibrutinib.
The raw data (% dead cells) are analyzed as follows: 1) from the raw data (% dead cells), the background (controls) are subtracted, resulting in the specific killing for each treatment group; then 2) the specific killing values are normalized by setting the combination of MOR00208+Ibrutinib to 1.
Combination Index (CI) calculations are completed in order to determine synergy of the combination of the exemplified anti-CD19 antibody and Ibrutinib as compared to MOR00208 and Ibrutinib alone. Such calculations are described in Ting-Chao Chou, Theoretical Basis, Experimental Design, and Computerized Simulation of Synergism and Antagonism in Drug Combination Studies, Pharmacol Rev 58:621-681 (2006), which is incorporated by reference in its entirety and Chou T C, Talalay P, Quantitative analysis of dose-effect relationships: the combined effects of multiple drugs or enzyme inhibitors. Adv Enzyme Regul 22: 27-55 (1984), which is incorporated by reference in its entirety. The methods of Chou-Talalay are carried out using the CI-isobol method. […]

[1] = Experiment 1, Ibrutinib at 0.3 μM, MOR00208 0.01 nM, control (0.1% DMSO/Ref33) 25.27
[2] = Experiment 1, Ibrutinib at 0.3 μM, MOR00208 0.1 nM, control (0.1% DMSO/Ref33) 25.27
[3] = Experiment 1, Ibrutinib at 0.3 μM, MOR00208 10 nM, control (0.1% DMSO/Ref33) 25.27
[4] = Experiment 1, Ibrutinib at 1 μM, MOR00208 0.01 nM, control (0.1% DMSO/Ref33) 25.27
[5] = Experiment 1, Ibrutinib at 1 μM, MOR00208 0.1 nM, control (0.1% DMSO/Ref33) 25.27
[6] = Experiment 1, Ibrutinib at 1 μM, MOR00208 10 nM, control (0.1% DMSO/Ref33) 25.27
[7] = Experiment 1, Ibrutinib at 3 μM, MOR00208 0.01 nM, control (0.1% DMSO/Ref33) 25.27
[8] = Experiment 1, Ibrutinib at 3 μM, MOR00208 0.1 nM, control (0.1% DMSO/Ref33) 25.27
[9] = Experiment 1, Ibrutinib at 3 μM, MOR00208 10 nM, control (0.1% DMSO/Ref33) 25.27
[10] = Experiment 2, Ibrutinib at 0.3 μM, MOR00208 0.01 nM, control (0.03% DMSO/Ref33) 9.81
[11] = Experiment 2, Ibrutinib at 0.3 μM, MOR00208 0.1 nM, control (0.03% DMSO/Ref33) 9.81
[12] = Experiment 2, Ibrutinib at 0.3 μM, MOR00208 10 nM, control (0.03% DMSO/Ref33) 9.81
[13] = Experiment 2, Ibrutinib at 1 μM, MOR00208 0.01 nM, control (0.03% DMSO/Ref33) 9.81
[14] = Experiment 2, Ibrutinib at 1 μM, MOR00208 0.1 nM, control (0.03% DMSO/Ref33) 9.81
[15] = Experiment 2, Ibrutinib at 1 μM, MOR00208 10 nM, control (0.03% DMSO/Ref33) 9.81
[16] = Experiment 2, Ibrutinib at 3 μM, MOR00208 0.01 nM, control (0.03% DMSO/Ref33) 9.81
[17] = Experiment 2, Ibrutinib at 3 μM, MOR00208 0.1 nM, control (0.03% DMSO/Ref33) 9.81
[18] = Experiment 2, Ibrutinib at 3 μM, MOR00208 10 nM, control (0.03% DMSO/Ref33) 9.81
[19] = Experiment 3, Ibrutinib at 0.3 μM, MOR00208 0.01 nM, control (0.03% DMSO/Ref33) 16.40
[20] = Experiment 3, Ibrutinib at 0.3 μM, MOR00208 0.1 nM, control (0.03% DMSO/Ref33) 16.40
[21] = Experiment 3, Ibrutinib at 0.3 μM, MOR00208 10 nM, control (0.03% DMSO/Ref33) 16.40
[22] = Experiment 3, Ibrutinib at 1 μM, MOR00208 0.01 nM, control (0.03% DMSO/Ref33) 16.40
[23] = Experiment 3, Ibrutinib at 1 μM, MOR00208 0.1 nM, control (0.03% DMSO/Ref33) 16.40
[24] = Experiment 3, Ibrutinib at 1 μM, MOR00208 10 nM, control (0.03% DMSO/Ref33) 16.40
[25] = Experiment 3, Ibrutinib at 3 μM, MOR00208 0.01 nM, control (0.03% DMSO/Ref33) 16.40
[26] = Experiment 3, Ibrutinib at 3 μM, MOR00208 0.1 nM, control (0.03% DMSO/Ref33) 16.40
[27] = Experiment 3, Ibrutinib at 3 μM, MOR00208 10 nM, control (0.03% DMSO/Ref33) 16.40

Molecule | percent (%) dead cells (raw data) [1] [%] | percent (%) dead cells (raw data) [2] [%] | percent (%) dead cells (raw data) [3] [%] | percent (%) dead cells (raw data) [4] [%] | percent (%) dead cells (raw data) [5] [%] | percent (%) dead cells (raw data) [6] [%] | percent (%) dead cells (raw data) [7] [%] | percent (%) dead cells (raw data) [8] [%] | percent (%) dead cells (raw data) [9] [%] | percent (%) dead cells (raw data) [10] [%] | percent (%) dead cells (raw data) [11] [%] | percent (%) dead cells (raw data) [12] [%] | percent (%) dead cells (raw data) [13] [%] | percent (%) dead cells (raw data) [14] [%] | percent (%) dead cells (raw data) [15] [%] | percent (%) dead cells (raw data) [16] [%] | percent (%) dead cells (raw data) [17] [%] | percent (%) dead cells (raw data) [18] [%] | percent (%) dead cells (raw data) [19] [%] | percent (%) dead cells (raw data) [20] [%] | further results
C=CC(=O)N1CCC[C@@H](n2nc(-c3ccc(Oc4ccccc4)cc3)c3c(N)ncnc32)C1 [Ibrutinib, 1-[(3R)-3-[4-amino-3-(4-phenoxyphenyl)-1H-pyrazolo[3,4-d]pyrimidin-1-yl]-1-piperidinyl]-2-propen-1-one] | 21.99 | 21.99 | 21.99 | 24.33 | 24.33 | 24.33 | 17.07 | 17.07 | 17.07 | 8.56 | 8.56 | 8.56 | 8.39 | 8.39 | 8.39 | 10.84 | 10.84 | 10.84 | 8.56 | 8.56 | percent (%) dead cells (raw data) [21]: 8.56%; percent (%) dead cells (raw data) [22]: 7.50%; percent (%) dead cells (raw data) [23]: 7.50%; percent (%) dead cells (raw data) [24]: 7.50%; percent (%) dead cells (raw data) [25]: 8.26%; percent (%) dead cells (raw data) [26]: 8.26%; percent (%) dead cells (raw data) [27]: 8.26%
B1 | 56.54 | 72.31 | 73.77 | 56.54 | 72.31 | 73.77 | 56.54 | 72.31 | 73.77 | 37.57 | 52.10 | 50.83 | 37.57 | 52.10 | 50.83 | 37.57 | 52.10 | 50.83 | 63.68 | 81.30 | percent (%) dead cells (raw data) [21]: 81.41%; percent (%) dead cells (raw data) [22]: 63.68%; percent (%) dead cells (raw data) [23]: 81.30%; percent (%) dead cells (raw data) [24]: 81.41%; percent (%) dead cells (raw data) [25]: 63.68%; percent (%) dead cells (raw data) [26]: 81.30%; percent (%) dead cells (raw data) [27]: 81.41%
